Source: patent US6344211B1, “Transdermal absorption of active substances from subcooled melts” (LTS Lohmann Therapie-Systeme GmbH, priority 1994, dated 2002)
Read-outs that look alike come from different tables or passages of the source. Marks after values point to notes of the source that are not given here.

How the values were obtained:
[1] = cited from earlier work
[2] = dissociation constant (pKa) of the acids used; format: physicochemical; details: determined by experiment
Procedure: Column 1 indicates the number of the experiment, column 2 the concentration of buprenorphine base, column 3 the quality and quantity of the acid used, column 4 the dissociation constant of the acids used, column 5 the plasticizer, column 6 the polymers used, and column 7 the absorption rate under in-vitro-conditions. The relative amount of buprenorphine base diffusing through mice skin within 24 h, relative to the amount per TTS, is given. The penetration results were obtained using mice skin clamped in a Franz-Cell.
It is seen from column 4 that the dissociation constants of the carboxylic acids used are quite similar. However, if the plasticizer, oleyl oleate, is used in a 10%-concentration each time, it can be seen from Examples 1 and 3 or 2 and 4 that only the carboxylic acids having a tendency to form subcooled melts cause a marked penetration increase under in-vitro conditions. […] This was compensated by a higher concentration of the two weaker acids, amounting to 15%, as compared to the concentration of the two stronger acids. However, it can also be seen that the dissociation constants are so similar that the absorption-promoting effect cannot be explained by the dissociation constants.

O=C(O)CCCC(=O)O [glutaric acid]
pKa value ([1]; pKa I of glutaric acid, given for the glutaric acid monomethyl ester line): 4.33*

CC(=O)CCC(=O)O [levulic acid]
pKa value [2]: 4.4**

C=CCCCCCCCCC(=O)O [undecenoic acid]
pKa value ([1]; dissociation constant of the acid used in the TTS): 4.5
